From ChEMBL document CHEMBL1909046, “DrugMatrix in vitro pharmacology data”

Tested on: not listed separately
Assay: DRUGMATRIX: Sodium/nucleoside co-transporter radioligand binding (ligand: nitrobenzylthioinosine)
Type: cell membranes, Cavia porcellus, Dunkin-Hartley, Cerebral cortex, Membrane
Settings: Not Active = under 50% inhibition at 10 µM

SMILES	IC50	Ki
COc1c(N2CCNC(C)C2)c(F)cc2c(=O)c(C(=O)O)cn(C3CC3)c12 (configuration not stated) [GATIFLOXACIN]	Not Active	Not Active
CC(=O)CCCCn1c(=O)c2c(ncn2C)n(C)c1=O [PENTOXIFYLLINE]	Not Active	Not Active
O=C1CN=C(c2ccccc2)c2cc([N+](=O)[O-])ccc2N1 [NITRAZEPAM]	Not Active	Not Active
CCC1(c2ccccc2)C(=O)NCNC1=O [PRIMIDONE]	Not Active	Not Active
CC=CC(=O)N(CC)c1ccccc1C	Not Active	Not Active
O=C1NC(=O)C(c2ccccc2)(c2ccccc2)N1 [PHENYTOIN]	Not Active	Not Active
COc1ccc2c(c1)c(CC(=O)OCC(=O)O)c(C)n2C(=O)c1ccc(Cl)cc1 [ACEMETACIN]	Not Active	Not Active
CC1(C)S[C@@H]2[C@H](NC(=O)[C@H](NC(=O)N3CCNC3=O)c3ccccc3)C(=O)N2[C@H]1C(=O)O [AZLOCILLIN]	Not Active	Not Active
CCOC(=O)OC(C)OC1=C(C(=O)Nc2ccccn2)N(C)S(=O)(=O)c2ccccc21 (configuration not stated) [AMPIROXICAM]	Not Active	Not Active

Target: T1, Alpha-2A adrenergic receptor (Homo sapiens, UniProt P08913); also: in other assays of this panel Not Active means under 50% inhibition at 10 µM
T1 sequence (P08913 whole entry): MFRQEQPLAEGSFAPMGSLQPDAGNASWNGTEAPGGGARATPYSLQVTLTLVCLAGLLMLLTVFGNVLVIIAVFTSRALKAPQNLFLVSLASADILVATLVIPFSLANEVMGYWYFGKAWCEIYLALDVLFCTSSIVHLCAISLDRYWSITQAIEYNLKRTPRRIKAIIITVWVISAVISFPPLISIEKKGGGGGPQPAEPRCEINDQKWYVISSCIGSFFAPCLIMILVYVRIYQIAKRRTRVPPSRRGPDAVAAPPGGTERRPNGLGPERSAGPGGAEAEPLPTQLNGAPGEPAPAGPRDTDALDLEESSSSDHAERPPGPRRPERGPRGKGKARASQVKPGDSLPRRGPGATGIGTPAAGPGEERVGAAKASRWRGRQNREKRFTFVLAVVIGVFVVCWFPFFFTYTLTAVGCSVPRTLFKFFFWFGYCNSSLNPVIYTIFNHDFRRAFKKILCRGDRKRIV
Type: cell membranes, Sf9, Membrane
Settings: sf9

SMILES	IC50
COc1c(N2CCNC(C)C2)c(F)cc2c(=O)c(C(=O)O)cn(C3CC3)c12 (configuration not stated) [GATIFLOXACIN]	Not Active
CC(=O)CCCCn1c(=O)c2c(ncn2C)n(C)c1=O [PENTOXIFYLLINE]	Not Active
O=C1CN=C(c2ccccc2)c2cc([N+](=O)[O-])ccc2N1 [NITRAZEPAM]	Not Active
CCC1(c2ccccc2)C(=O)NCNC1=O [PRIMIDONE]	Not Active
CC=CC(=O)N(CC)c1ccccc1C	Not Active
O=C1NC(=O)C(c2ccccc2)(c2ccccc2)N1 [PHENYTOIN]	Not Active
COc1ccc2c(c1)c(CC(=O)OCC(=O)O)c(C)n2C(=O)c1ccc(Cl)cc1 [ACEMETACIN]	Not Active
CC1(C)S[C@@H]2[C@H](NC(=O)[C@H](NC(=O)N3CCNC3=O)c3ccccc3)C(=O)N2[C@H]1C(=O)O [AZLOCILLIN]	Not Active
CCOC(=O)OC(C)OC1=C(C(=O)Nc2ccccn2)N(C)S(=O)(=O)c2ccccc21 (configuration not stated) [AMPIROXICAM]	Not Active

Target: Aldo-keto reductase family 1 member B1 (Rattus norvegicus, UniProt P07943);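 also: inhibition of aldose reductase enzyme activity, measured with DL-glyceraldehyde as the substrate; in other assays of this panel Not Active means under 50% inhibition at 10 µM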
Type: tissue-based, Lens of camera-type eye
Settings: not given

SMILES	IC50
COc1c(N2CCNC(C)C2)c(F)cc2c(=O)c(C(=O)O)cn(C3CC3)c12 (configuration not stated) [GATIFLOXACIN]	Not Active
CC(=O)CCCCn1c(=O)c2c(ncn2C)n(C)c1=O [PENTOXIFYLLINE]	Not Active
O=C1CN=C(c2ccccc2)c2cc([N+](=O)[O-])ccc2N1 [NITRAZEPAM]	Not Active
CCC1(c2ccccc2)C(=O)NCNC1=O [PRIMIDONE]	Not Active
CC=CC(=O)N(CC)c1ccccc1C	Not Active
O=C1NC(=O)C(c2ccccc2)(c2ccccc2)N1 [PHENYTOIN]	Not Active
COc1ccc2c(c1)c(CC(=O)OCC(=O)O)c(C)n2C(=O)c1ccc(Cl)cc1 [ACEMETACIN]	Not Active
CC1(C)S[C@@H]2[C@H](NC(=O)[C@H](NC(=O)N3CCNC3=O)c3ccccc3)C(=O)N2[C@H]1C(=O)O [AZLOCILLIN]	Not Active
CCOC(=O)OC(C)OC1=C(C(=O)Nc2ccccn2)N(C)S(=O)(=O)c2ccccc21 (configuration not stated) [AMPIROXICAM]	Not Active

Target: T2, Type-2 angiotensin II receptor (Homo sapiens, UniProt P50052); also: in other assays of this panel Not Active means under 50% inhibition at 10 µM
T2 sequence (P50052 whole entry): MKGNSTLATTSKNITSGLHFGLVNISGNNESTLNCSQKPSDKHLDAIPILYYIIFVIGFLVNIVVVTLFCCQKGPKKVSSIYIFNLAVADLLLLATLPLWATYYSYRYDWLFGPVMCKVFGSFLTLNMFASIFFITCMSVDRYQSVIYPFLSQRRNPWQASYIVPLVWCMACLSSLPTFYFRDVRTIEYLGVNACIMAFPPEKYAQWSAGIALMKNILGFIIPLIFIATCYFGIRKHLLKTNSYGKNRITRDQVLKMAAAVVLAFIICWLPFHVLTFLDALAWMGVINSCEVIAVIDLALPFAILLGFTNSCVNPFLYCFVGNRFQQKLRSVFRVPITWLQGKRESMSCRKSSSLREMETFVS
Type: cell-based
Settings: cho-k1

SMILES	IC50
COc1c(N2CCNC(C)C2)c(F)cc2c(=O)c(C(=O)O)cn(C3CC3)c12 (configuration not stated) [GATIFLOXACIN]	Not Active
CC(=O)CCCCn1c(=O)c2c(ncn2C)n(C)c1=O [PENTOXIFYLLINE]	Not Active
O=C1CN=C(c2ccccc2)c2cc([N+](=O)[O-])ccc2N1 [NITRAZEPAM]	Not Active
CCC1(c2ccccc2)C(=O)NCNC1=O [PRIMIDONE]	Not Active
CC=CC(=O)N(CC)c1ccccc1C	Not Active
O=C1NC(=O)C(c2ccccc2)(c2ccccc2)N1 [PHENYTOIN]	Not Active
COc1ccc2c(c1)c(CC(=O)OCC(=O)O)c(C)n2C(=O)c1ccc(Cl)cc1 [ACEMETACIN]	Not Active
CC1(C)S[C@@H]2[C@H](NC(=O)[C@H](NC(=O)N3CCNC3=O)c3ccccc3)C(=O)N2[C@H]1C(=O)O [AZLOCILLIN]	Not Active
CCOC(=O)OC(C)OC1=C(C(=O)Nc2ccccn2)N(C)S(=O)(=O)c2ccccc21 (configuration not stated) [AMPIROXICAM]	Not Active

Target: Sodium-dependent dopamine transporter (Homo sapiens, UniProt Q01959)
Assay: DRUGMATRIX: Dopamine Transporter radioligand binding (ligand: [125I] RTI-55)
Type: cell membranes, CHO-K1, Membrane
Settings: cho-k1; Not Active = under 50% inhibition at 10 µM

Sequence of Sodium-dependent dopamine transporter (Q01959 whole entry): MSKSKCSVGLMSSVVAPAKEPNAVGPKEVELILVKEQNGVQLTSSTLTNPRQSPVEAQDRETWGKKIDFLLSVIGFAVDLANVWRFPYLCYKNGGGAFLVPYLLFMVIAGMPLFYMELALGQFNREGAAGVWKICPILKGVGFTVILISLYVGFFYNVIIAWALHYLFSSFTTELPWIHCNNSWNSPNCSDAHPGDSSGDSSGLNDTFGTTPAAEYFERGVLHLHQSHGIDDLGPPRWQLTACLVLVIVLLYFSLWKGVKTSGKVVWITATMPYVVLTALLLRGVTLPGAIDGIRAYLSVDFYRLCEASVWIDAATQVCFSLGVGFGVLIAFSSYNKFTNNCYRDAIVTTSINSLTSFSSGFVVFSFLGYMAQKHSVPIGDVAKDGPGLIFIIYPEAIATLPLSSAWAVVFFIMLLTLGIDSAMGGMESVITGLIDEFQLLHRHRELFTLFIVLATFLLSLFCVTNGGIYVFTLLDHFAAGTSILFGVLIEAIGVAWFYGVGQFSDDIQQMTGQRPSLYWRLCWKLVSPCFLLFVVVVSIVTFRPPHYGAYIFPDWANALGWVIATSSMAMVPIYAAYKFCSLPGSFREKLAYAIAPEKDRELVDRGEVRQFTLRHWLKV

SMILES	IC50
COc1c(N2CCNC(C)C2)c(F)cc2c(=O)c(C(=O)O)cn(C3CC3)c12 (configuration not stated) [GATIFLOXACIN]	Not Active
CC(=O)CCCCn1c(=O)c2c(ncn2C)n(C)c1=O [PENTOXIFYLLINE]	Not Active
O=C1CN=C(c2ccccc2)c2cc([N+](=O)[O-])ccc2N1 [NITRAZEPAM]	Not Active
CCC1(c2ccccc2)C(=O)NCNC1=O [PRIMIDONE]	Not Active
CC=CC(=O)N(CC)c1ccccc1C	Not Active
O=C1NC(=O)C(c2ccccc2)(c2ccccc2)N1 [PHENYTOIN]	Not Active
COc1ccc2c(c1)c(CC(=O)OCC(=O)O)c(C)n2C(=O)c1ccc(Cl)cc1 [ACEMETACIN]	Not Active
CC1(C)S[C@@H]2[C@H](NC(=O)[C@H](NC(=O)N3CCNC3=O)c3ccccc3)C(=O)N2[C@H]1C(=O)O [AZLOCILLIN]	Not Active
CCOC(=O)OC(C)OC1=C(C(=O)Nc2ccccn2)N(C)S(=O)(=O)c2ccccc21 (configuration not stated) [AMPIROXICAM]	Not Active

Target: T3, Muscarinic acetylcholine receptor M5 (Homo sapiens, UniProt P08912); also: in other assays of this panel Not Active means under 50% inhibition at 10 µM
T3 sequence (P08912 whole entry): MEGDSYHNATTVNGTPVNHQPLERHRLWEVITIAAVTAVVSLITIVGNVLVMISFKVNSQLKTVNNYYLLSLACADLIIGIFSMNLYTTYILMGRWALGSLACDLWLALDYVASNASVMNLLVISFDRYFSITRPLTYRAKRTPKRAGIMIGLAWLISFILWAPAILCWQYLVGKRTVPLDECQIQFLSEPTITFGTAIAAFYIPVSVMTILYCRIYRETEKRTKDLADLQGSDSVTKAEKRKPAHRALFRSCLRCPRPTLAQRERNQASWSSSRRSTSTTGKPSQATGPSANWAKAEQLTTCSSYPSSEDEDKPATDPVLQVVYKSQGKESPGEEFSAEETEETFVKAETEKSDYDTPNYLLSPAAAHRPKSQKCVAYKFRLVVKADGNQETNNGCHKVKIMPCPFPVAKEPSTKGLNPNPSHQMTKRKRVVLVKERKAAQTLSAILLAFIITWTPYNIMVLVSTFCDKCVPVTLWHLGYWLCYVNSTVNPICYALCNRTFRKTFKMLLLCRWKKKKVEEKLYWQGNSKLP
Type: cell membranes, CHO-K1, Membrane
Settings: cho-k1

SMILES	IC50
COc1c(N2CCNC(C)C2)c(F)cc2c(=O)c(C(=O)O)cn(C3CC3)c12 (configuration not stated) [GATIFLOXACIN]	Not Active
CC(=O)CCCCn1c(=O)c2c(ncn2C)n(C)c1=O [PENTOXIFYLLINE]	Not Active
O=C1CN=C(c2ccccc2)c2cc([N+](=O)[O-])ccc2N1 [NITRAZEPAM]	Not Active
CCC1(c2ccccc2)C(=O)NCNC1=O [PRIMIDONE]	Not Active
CC=CC(=O)N(CC)c1ccccc1C	Not Active
O=C1NC(=O)C(c2ccccc2)(c2ccccc2)N1 [PHENYTOIN]	Not Active
COc1ccc2c(c1)c(CC(=O)OCC(=O)O)c(C)n2C(=O)c1ccc(Cl)cc1 [ACEMETACIN]	Not Active
CC1(C)S[C@@H]2[C@H](NC(=O)[C@H](NC(=O)N3CCNC3=O)c3ccccc3)C(=O)N2[C@H]1C(=O)O [AZLOCILLIN]	Not Active
CCOC(=O)OC(C)OC1=C(C(=O)Nc2ccccn2)N(C)S(=O)(=O)c2ccccc21 (configuration not stated) [AMPIROXICAM]	Not Active

Target: T4, Receptor-type tyrosine-protein phosphatase C (Homo sapiens, UniProt P08575)
T4 sequence (P08575 whole entry): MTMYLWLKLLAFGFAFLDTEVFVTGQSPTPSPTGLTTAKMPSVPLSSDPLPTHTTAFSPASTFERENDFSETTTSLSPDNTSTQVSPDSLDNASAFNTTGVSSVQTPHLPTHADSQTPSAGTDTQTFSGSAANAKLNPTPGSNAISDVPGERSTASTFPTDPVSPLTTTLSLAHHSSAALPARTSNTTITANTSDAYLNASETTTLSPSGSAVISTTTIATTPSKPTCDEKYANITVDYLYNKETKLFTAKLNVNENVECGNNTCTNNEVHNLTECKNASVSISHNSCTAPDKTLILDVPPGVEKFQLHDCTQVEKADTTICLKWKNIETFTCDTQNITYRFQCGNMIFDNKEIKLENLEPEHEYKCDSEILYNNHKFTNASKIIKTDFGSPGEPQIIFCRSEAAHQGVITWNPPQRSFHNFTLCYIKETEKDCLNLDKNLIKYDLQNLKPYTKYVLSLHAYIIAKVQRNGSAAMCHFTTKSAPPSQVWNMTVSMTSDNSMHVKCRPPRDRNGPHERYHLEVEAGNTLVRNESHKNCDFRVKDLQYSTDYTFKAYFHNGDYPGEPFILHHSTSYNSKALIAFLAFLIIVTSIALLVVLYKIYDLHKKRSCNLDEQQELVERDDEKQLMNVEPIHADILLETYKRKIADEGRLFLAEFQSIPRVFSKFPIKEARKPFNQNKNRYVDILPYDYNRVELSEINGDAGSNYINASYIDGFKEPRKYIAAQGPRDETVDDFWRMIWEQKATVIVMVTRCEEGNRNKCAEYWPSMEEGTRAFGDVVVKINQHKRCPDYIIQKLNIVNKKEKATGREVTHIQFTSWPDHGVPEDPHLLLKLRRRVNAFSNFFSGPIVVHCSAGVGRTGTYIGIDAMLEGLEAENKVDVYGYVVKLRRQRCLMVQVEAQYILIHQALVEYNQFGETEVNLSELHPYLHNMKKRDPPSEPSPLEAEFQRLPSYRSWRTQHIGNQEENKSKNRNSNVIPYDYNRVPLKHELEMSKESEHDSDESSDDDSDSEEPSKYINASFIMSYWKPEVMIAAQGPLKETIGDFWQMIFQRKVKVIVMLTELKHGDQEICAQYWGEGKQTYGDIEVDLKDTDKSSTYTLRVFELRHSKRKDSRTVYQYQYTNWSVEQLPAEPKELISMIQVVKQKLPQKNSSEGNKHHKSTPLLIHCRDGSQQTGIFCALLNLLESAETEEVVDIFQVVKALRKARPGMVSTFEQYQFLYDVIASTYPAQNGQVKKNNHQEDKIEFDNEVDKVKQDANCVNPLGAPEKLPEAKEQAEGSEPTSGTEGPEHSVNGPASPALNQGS
Set-up: species or system Escherichia coli
Settings: not given

SMILES	IC50
COc1c(N2CCNC(C)C2)c(F)cc2c(=O)c(C(=O)O)cn(C3CC3)c12 (configuration not stated) [GATIFLOXACIN]	Not Active
CC(=O)CCCCn1c(=O)c2c(ncn2C)n(C)c1=O [PENTOXIFYLLINE]	Not Active
O=C1CN=C(c2ccccc2)c2cc([N+](=O)[O-])ccc2N1 [NITRAZEPAM]	Not Active
CCC1(c2ccccc2)C(=O)NCNC1=O [PRIMIDONE]	Not Active
CC=CC(=O)N(CC)c1ccccc1C	Not Active
O=C1NC(=O)C(c2ccccc2)(c2ccccc2)N1 [PHENYTOIN]	Not Active
COc1ccc2c(c1)c(CC(=O)OCC(=O)O)c(C)n2C(=O)c1ccc(Cl)cc1 [ACEMETACIN]	Not Active
CC1(C)S[C@@H]2[C@H](NC(=O)[C@H](NC(=O)N3CCNC3=O)c3ccccc3)C(=O)N2[C@H]1C(=O)O [AZLOCILLIN]	Not Active
CCOC(=O)OC(C)OC1=C(C(=O)Nc2ccccn2)N(C)S(=O)(=O)c2ccccc21 (configuration not stated) [AMPIROXICAM]	Not Active
